From patent US20130131321A1, “LIGANDS FOR ANTIBODY AND Fc-FUSION PROTEIN PURIFICATION BY AFFINITY CHROMATOGRAPHY” (GRAFFINITY PHARMACEUTICALS GMBH, priority 2010, published 2013)
Read-outs that look alike come from different tables or passages of the source.

Tests used:
[1] = target: T1, Bevacizumab (Homo sapiens, UniProt P01857); assay: Microtiter plate chromatography of resins, Bevacizumab whole IgG (bound, yield, selectivity); type: binding, humanized
T1 construct: fused on or other part: humanised anti-VEGF-A VH domain N-terminal of the gamma-1 constant region (engineered, no UniProt entry)

[2] = tested on: Bevacizumab; assay: as above; type: binding, humanized
[3] = tested on: human poly-IgG (h-poly-IgG); assay: Microtiter plate chromatography of resins, human poly-IgG (bound, yield); type: binding
[4] = tested on: host cell proteins (HCP); assay: Microtiter plate chromatography of resins, host cell proteins (bound); type: binding, CHO
[5] = tested on: Palivizumab; assay: Microtiter plate chromatography of resins, Palivizumab (bound, yield); type: binding, humanized
[6] = tested on: Tocilizumab; assay: Microtiter plate chromatography of resins, Tocilizumab (bound, yield); type: binding, humanized
[7] = fraction of whole IgG Bevacizumab bound to resin
[8] = mass of whole IgG Bevacizumab eluted / mass injected
[9] = fraction of injected whole IgG bound to resin
[10] = mass eluted / mass injected, whole IgG
[11] = fraction of injected protein bound to resin
[12] = fraction of injected host cell proteins bound to resin

| SMILES | Bevacizumab IgG Bound (%) [1, 7] | Bevacizumab IgG Yield (%) [1, 8] | Selectivity [2] | h-poly-IgG Bound (%) [3] | h-poly-IgG Yield (%) [3] | HCP Bound (%) ([4]; host cell proteins) | Palivizumab Bound (%) [5] | Palivizumab Yield (%) [5] | Tocilizumab Bound (%) [6] | Tocilizumab Yield (%) [6] | Bevacizumab IgG Bound (%) [1, 9] | Bevacizumab IgG Yield (%) [1, 10] | h-poly-IgG Bound (%) [3, 11] | h-poly-IgG Yield (%) ([3]; mass eluted / mass injected) | HCP Bound (%) [4, 12] | Palivizumab Bound (%) [5, 11] | Palivizumab Yield (%) ([5]; mass eluted / mass injected) | Tocilizumab Bound (%) [6, 11] | Tocilizumab Yield (%) ([6]; mass eluted / mass injected) | also measured |
| --- | --- | --- | --- | --- | --- | --- | --- | --- | --- | --- | --- | --- | --- | --- | --- | --- | --- | --- | --- | --- |
| COc1ccc(NC(=O)c2cc(-c3cccn3C)n(C)n2)cc1C(=O)NCCCN [Ligand L16, 2-Methoxy-5-[5-(1-methyl-2-pyrrolyl)-1-methylpyrazol-3-yl]carboxamidobenzoic acid N-(3-aminopropyl)amide] | 100% | 93% | 2.0 | 96% | 83% | 51% | 100% | 90% | 100% | 96% | – | – | – | – | – | – | – | – | – | – |
| COc1ccc(NC(=O)c2cn3ncccc3n2)cc1C(=O)NCCOCCOCC(=O)NCCCC[C@H](NC(=O)COCCOCCNC(=O)c1cc(NC(=O)c2cn3ncccc3n2)ccc1OC)C(=O)NCCCN [Ligand L62, (S)-2,6-Bis{8-[5-(Imidazo[1,2-b]pyridazin-2-ylcarboxamido)-2-methoxyphenylcarboxamido]-3,6-dioxaoctanoylamido}hexanoic acid (3-amino-1-propyl)amide] | 100% | 100% | – | 89% | 89% | 3% | 84% | 77% | 95% | 91% | – | – | – | – | – | – | – | – | – | Selectivity ([2]; fraction of bound Bevacizumab whole IgG / fraction of bound HCP, truncated beyond values of 10): 10.0 |
| NCCCNC(=O)c1cccc(C(=O)Nc2nnc(-c3ccco3)s2)c1 [Ligand L70, Isophthalic acid N-(3-aminopropyl)-N′-[5-(2-furyl)-1,3,4-thiadiazol-2-yl]amide] | – | – | 5.4 | – | – | – | – | – | – | – | 100% | 83% | 64% | 64% | 19% | 55% | 55% | 100% | 100% | – |
| COc1ccc(C(=O)Nc2nn(C)c3ccccc23)cc1C(=O)NCCCN [Ligand L39, 5-[N-(1-Methylindazol-3-yl)carbamoyl]-2-methoxybenzoic acid (3-amino-1-propyl)amide] | 100% | 100% | 2.9 | 100% | 100% | 35% | 100% | 100% | 100% | 100% | – | – | – | – | – | – | – | – | – | – |
| COc1ccc(NC(=O)c2cn3ccsc3n2)cc1C(=O)NCCOCCOCCNC(=O)NCCOCCOCCN [Ligand L69, N-(8-Amino-3,6-dioxaoctyl)-N′-{8-[5-(imidazo[2,1-b]thiazol-6-ylcarboxamido)-2-methoxyphenylcarboxamido]-3,6-dioxaoctyl}urea] | – | – | – | – | – | – | – | – | – | – | 100% | 100% | 63% | 63% | 2% | 45% | 45% | 78% | 73% | Selectivity ([2]; bound Bevacizumab whole IgG / bound HCP, truncated beyond values of 10): 10.0 |
| COc1ccc(NC(=O)c2cc(-c3ccco3)n(C)n2)cc1C(=O)NCCOCCOCC(=O)NCCOCCOCC(=O)NCCCN [Ligand L65, 8-{8-{5-[5-(2-Furyl)-1-methylpyrazol-3-ylcarboxamido]-2-methoxyphenylcarboxamido}-3,6-dioxaoctanoylamido}-3,6-dioxaoctanoic acid (3-amino-1-propyl)amide] | – | – | 9.5 | – | – | – | – | – | – | – | 100% | 100% | 67% | 67% | 11% | 58% | 58% | 74% | 71% | – |
